# Assay results from ChEMBL document CHEMBL3885881, “DrugMatrix”.
# Species: Rattus norvegicus
# Format: toxicity, organism-based, Sprague-Dawley
# Details: in vivo, po, 24 h, route oral GAVAGE, time 1 day, […]; for ABSOLUTE BASOPHIL / ABSOLUTE EOSINOPHIL / ABSOLUTE LYMPHOCYTE / ABSOLUTE MONOCYTE / BASOPHIL / EOSINOPHIL / ERYTHROCYTE COUNT / HEMATOCRIT / HEMOGLOBIN / LEUKOCYTE COUNT / LYMPHOCYTE / MEAN CORPUSCULAR HEMOGLOBIN / MEAN CORPUSCULAR HEMOGLOBIN CONCENTRATION / MEAN CORPUSCULAR VOLUME / MONOCYTE / NEUTROPHIL / PLATELET COUNT: tissue Blood; for ALANINE AMINOTRANSFERASE / ALBUMIN / ALKALINE PHOSPHATASE / ASPARTATE AMINOTRANSFERASE / BLOOD UREA NITROGEN / CARBON DIOXIDE / CHLORIDE / CHOLESTEROL / CREATINE PHOSPHOKINASE / CREATININE / GLUCOSE / LACTATE DEHYDROGENASE / LIPASE / PHOSPHORUS / POTASSIUM / SODIUM / TOTAL BILIRUBIN / TOTAL PROTEIN / URIC ACID: tissue Plasma
# [1] = 0 mg/kg, vehicle control, dose level Control
# Description: DrugMatrix - Regimen: Single
smiles,measurement,setting,value
C=CCN [ALLYLAMINE],ABSOLUTE BASOPHIL,[1],46.7 cells/µL
same,ABSOLUTE EOSINOPHIL,[1],130 cells/µL
same,ABSOLUTE LYMPHOCYTE,[1],8720 cells/µL
same,ABSOLUTE MONOCYTE,[1],140 cells/µL
same,BASOPHIL,[1],0.43%
same,EOSINOPHIL,[1],1.33%
same,ERYTHROCYTE COUNT,[1],6.45 x10E6/uL
same,HEMATOCRIT,[1],42.2%
same,HEMOGLOBIN,[1],13.33 G/DL
same,LEUKOCYTE COUNT,[1],10.59 x10E3/uL
same,LYMPHOCYTE,[1],82.13%
same,MEAN CORPUSCULAR HEMOGLOBIN,[1],20.67 pg
same,MEAN CORPUSCULAR HEMOGLOBIN CONCENTRATION,[1],31.6 G/DL
same,MEAN CORPUSCULAR VOLUME,[1],65.4 fL
same,MONOCYTE,[1],1.37%
same,NEUTROPHIL,[1],14.3%
same,PLATELET COUNT,[1],1048.67 x10E3/uL
same,ALANINE AMINOTRANSFERASE,[1],44 u/L
same,ALBUMIN,[1],3.93 G/DL
same,ALKALINE PHOSPHATASE,[1],551.33 u/L
same,ASPARTATE AMINOTRANSFERASE,[1],97 u/L
same,BLOOD UREA NITROGEN,[1],13.5 mg/dL
same,CARBON DIOXIDE,[1],37.33 mmol/L
same,CHLORIDE,[1],102.33 MEQ/L
same,CHOLESTEROL,[1],83 mg/dL
same,CREATINE PHOSPHOKINASE,[1],365.33 u/L
same,CREATININE,[1],0.4 mg/dL
same,GLUCOSE,[1],189 mg/dL
same,LACTATE DEHYDROGENASE,[1],170.33 u/L
same,LIPASE,[1],10.67 u/L
same,PHOSPHORUS,[1],11.53 mg/dL
same,POTASSIUM,[1],5.63 MEQ/L
same,SODIUM,[1],144.33 MEQ/L
same,TOTAL BILIRUBIN,[1],0.4 mg/dL
same,TOTAL PROTEIN,[1],6.27 G/DL
same,URIC ACID,[1],0.87 mg/dL
same,ABSOLUTE BASOPHIL,"40 mg/kg, dose level Low",26.7 cells/µL
same,ABSOLUTE EOSINOPHIL,"40 mg/kg, dose level Low",160 cells/µL
same,ABSOLUTE LYMPHOCYTE,"40 mg/kg, dose level Low",6420 cells/µL
same,ABSOLUTE MONOCYTE,"40 mg/kg, dose level Low",190 cells/µL
same,BASOPHIL,"40 mg/kg, dose level Low",0.3%
same,EOSINOPHIL,"40 mg/kg, dose level Low",1.9%
same,ERYTHROCYTE COUNT,"40 mg/kg, dose level Low",7.01 x10E6/uL
same,HEMATOCRIT,"40 mg/kg, dose level Low",45.2%
same,HEMOGLOBIN,"40 mg/kg, dose level Low",14.3 G/DL
same,LEUKOCYTE COUNT,"40 mg/kg, dose level Low",8.6 x10E3/uL
same,LYMPHOCYTE,"40 mg/kg, dose level Low",74.17%
same,MEAN CORPUSCULAR HEMOGLOBIN,"40 mg/kg, dose level Low",20.43 pg
same,MEAN CORPUSCULAR HEMOGLOBIN CONCENTRATION,"40 mg/kg, dose level Low",31.67 G/DL
same,MEAN CORPUSCULAR VOLUME,"40 mg/kg, dose level Low",64.6 fL
same,MONOCYTE,"40 mg/kg, dose level Low",2.23%
same,NEUTROPHIL,"40 mg/kg, dose level Low",20.97%
same,PLATELET COUNT,"40 mg/kg, dose level Low",1314 x10E3/uL
same,ALANINE AMINOTRANSFERASE,"40 mg/kg, dose level Low",38 u/L
same,ALBUMIN,"40 mg/kg, dose level Low",3.9 G/DL
same,ALKALINE PHOSPHATASE,"40 mg/kg, dose level Low",499 u/L
same,ASPARTATE AMINOTRANSFERASE,"40 mg/kg, dose level Low",72.33 u/L
same,BLOOD UREA NITROGEN,"40 mg/kg, dose level Low",10 mg/dL
same,CARBON DIOXIDE,"40 mg/kg, dose level Low",38.67 mmol/L
same,CHLORIDE,"40 mg/kg, dose level Low",104 MEQ/L
same,CHOLESTEROL,"40 mg/kg, dose level Low",72.67 mg/dL
same,CREATINE PHOSPHOKINASE,"40 mg/kg, dose level Low",242.67 u/L
same,CREATININE,"40 mg/kg, dose level Low",0.47 mg/dL
same,GLUCOSE,"40 mg/kg, dose level Low",171.33 mg/dL
same,LACTATE DEHYDROGENASE,"40 mg/kg, dose level Low",92.33 u/L
same,LIPASE,"40 mg/kg, dose level Low",15.33 u/L
same,PHOSPHORUS,"40 mg/kg, dose level Low",11.83 mg/dL
same,POTASSIUM,"40 mg/kg, dose level Low",5.73 MEQ/L
same,SODIUM,"40 mg/kg, dose level Low",145 MEQ/L
same,TOTAL BILIRUBIN,"40 mg/kg, dose level Low",0.3 mg/dL
same,TOTAL PROTEIN,"40 mg/kg, dose level Low",6.27 G/DL
same,URIC ACID,"40 mg/kg, dose level Low",1.3 mg/dL
